Experimental data published in ChEMBL document CHEMBL3826902, “Synthesis and cytotoxic activities of semisynthetic zearalenone analogues” (Bioorg Med Chem Lett, 2016).
Calls of active or inactive are those of the source. No cut-off for these calls is given here.

Columns and labels:
[1] = Cytotoxicity against human HL60 cells assessed as reduction in cell viability after 24 hrs by MTT assay; assay type: functional, cell-based; details: HL-60, 24 h
[2] = tested on: MCF7; test: Cytotoxicity against human MCF7 cells assessed as reduction in cell viability by resazurin microplate assay; assay type: functional, cell-based
[3] = tested on: Vero; test: Cytotoxicity against African green monkey Vero cells assessed as reduction in cell viability by green fluorescent protein-based assay; set-up: species or system Chlorocebus sabaeus
[4] = tested on: KB; test: Cytotoxicity against human KB cells assessed as reduction in cell viability by resazurin microplate assay; assay type: functional, cell-based
[5] = tested on: MCF7; test: Cytotoxicity against human MCF7 cells assessed as reduction in cell viability at >50 ug/ml by resazurin microplate assay; assay type: functional, cell-based
[6] = tested on: KB; test: Cytotoxicity against human KB cells assessed as reduction in cell viability at >50 ug/ml by resazurin microplate assay; assay type: functional, cell-based
[7] = tested on: Vero; test: Cytotoxicity against African green monkey Vero cells assessed as reduction in cell viability at >50 ug/ml by green fluorescent protein-based assay; details: Chlorocebus sabaeus
[8] = Homo sapiens, MCF7, read-out: IC50
[9] = Chlorocebus sabaeus, Vero, read-out: IC50
[10] = Homo sapiens, KB, read-out: IC50

SMILES	IC50 [1]	IC50 [2, 8]	IC50 [3, 9]	IC50 [4, 10]	Activity [5]	IC50 ([2]; mcf7)	Activity [6]	IC50 ([4]; kb)	Activity [7]	IC50 ([3]; vero)
C[C@H]1CCCC(=O)CCC/C=C/c2cc(O)cc(O)c2C(=O)O1 [ZEARALENONE]	138 µM	105 µM	40.6 µM	46.3 µM	–	–	–	–	–	–
COc1cc(O)c2c(c1)CCCCC[C@H](O)CCC[C@H](C)OC2=O	–	–	148 µM	–	inactive	Not Active	inactive	Not Active	–	–
Cc1c2ccncc2c(C)c2c1[nH]c1ccccc12 [ELLIPTECINE]	–	–	4.26 µM	8.28 µM	–	–	–	–	–	–
COc1cccc2c1C(=O)c1c(O)c3c(c(O)c1C2=O)C[C@@](O)(C(=O)CO)C[C@@H]3O[C@H]1C[C@H](N)[C@H](O)[C@H](C)O1 [DOXORUBICIN]	–	–	–	1.06 µM	–	–	–	–	–	–
C[C@H]1CCC[C@@H](O)CCCCCc2cc(O)cc(O)c2C(=O)O1 [TALERANOL]	–	–	22.6 µM	–	inactive	Not Active	inactive	Not Active	–	–
CC/C(=C(\c1ccccc1)c1ccc(OCCN(C)C)cc1)c1ccccc1 [TAMOXIFEN]	–	19.3 µM	–	–	–	–	–	–	–	–
COc1cc(O)c2c(c1)/C=C/CCC[C@H](O)CCC[C@H](C)OC2=O	–	–	–	56 µM	inactive	Not Active	–	–	Non-toxic	Not Active
COc1cc2c(c(OC)c1)C(=O)O[C@@H](C)CCC[C@H](O)CCC/C=C/2	–	–	–	–	inactive	Not Active	inactive	Not Active	Non-toxic	Not Active
CCC(=O)Oc1cc(O)c2c(c1)/C=C/CCC[C@H](O)CCC[C@H](C)OC2=O	–	–	35 µM	33.4 µM	inactive	Not Active	–	–	–	–
COc1cc(O)c2c(c1)/C=C/CCCC(=O)CCC[C@H](C)OC2=O	–	–	–	–	inactive	Not Active	inactive	Not Active	Non-toxic	Not Active
CC(=O)Oc1cc(O)c2c(c1)/C=C/CCCC(=O)CCC[C@H](C)OC2=O	–	–	134 µM	52.9 µM	inactive	Not Active	–	–	–	–
CCCOc1cc(O)c2c(c1)/C=C/CCC[C@@H](O)CCC[C@H](C)OC2=O	–	43.8 µM	26.2 µM	35.7 µM	–	–	–	–	–	–
CCCCCCCCOc1cc(O)c2c(c1)/C=C/CCC[C@H](O)CCC[C@H](C)OC2=O	–	93.6 µM	73.4 µM	82.2 µM	–	–	–	–	–	–
CCCCCCCCOc1cc(O)c2c(c1)/C=C/CCC[C@@H](O)CCC[C@H](C)OC2=O	–	75.2 µM	24.2 µM	40.9 µM	–	–	–	–	–	–
COc1cc(O)c2c(c1)/C=C/CCC[C@@H](O)CCC[C@H](C)OC2=O	–	93.3 µM	53.1 µM	104 µM	–	–	–	–	–	–
CC(=O)Oc1cc(O)c2c(c1)/C=C/CCC[C@H](O)CCC[C@H](C)OC2=O	–	–	13.6 µM	48.9 µM	inactive	Not Active	–	–	–	–
COc1cc(OC)c2c(c1Cl)/C=C/CCCC(=O)CCC[C@H](C)OC2=O	–	–	–	–	inactive	Not Active	inactive	Not Active	Non-toxic	Not Active
CCC(=O)Oc1cc(O)c2c(c1)/C=C/CCCC(=O)CCC[C@H](C)OC2=O	–	–	44.1 µM	52.4 µM	inactive	Not Active	–	–	–	–
CCCOc1cc(O)c2c(c1)/C=C/CCC[C@H](O)CCC[C@H](C)OC2=O	–	81.9 µM	53.3 µM	83.4 µM	–	–	–	–	–	–

SMILES	IC50 [1]	IC50 [2, 8]	IC50 [3, 9]	IC50 [4, 10]	Activity [5]	IC50 ([2]; mcf7)	Activity [6]	IC50 ([4]; kb)	Activity [7]	IC50 ([3]; vero)
C[C@H]1CCC[C@H](O)CCC/C=C/c2cc(O)cc(O)c2C(=O)O1	–	–	60.3 µM	100 µM	inactive	Not Active	–	–	–	–
COc1cc2c(c(OC)c1)C(=O)O[C@@H](C)CCCC(=O)CCC/C=C/2	–	–	–	–	inactive	Not Active	inactive	Not Active	Non-toxic	Not Active
COc1cc2c(c(OC)c1)C(=O)O[C@@H](C)CCC[C@@H](O)CCC/C=C/2	–	–	–	–	inactive	Not Active	inactive	Not Active	Non-toxic	Not Active
COc1cc2c(c(OC)c1)C(=O)O[C@@H](C)CCC[C@@H](O)CCCCC2	–	–	–	–	inactive	Not Active	inactive	Not Active	Non-toxic	Not Active
C[C@H]1CCC[C@H](O)CCCCCc2cc(O)cc(O)c2C(=O)O1 [ZERANOL]	–	–	50 µM	–	inactive	Not Active	inactive	Not Active	–	–
CC(=O)Oc1cc2c(c(OC(C)=O)c1)C(=O)O[C@@H](C)CCCC(=O)CCC/C=C/2	–	–	48 µM	59.7 µM	inactive	Not Active	–	–	–	–
CCOc1cc(O)c2c(c1)/C=C/CCC[C@H](O)CCC[C@H](C)OC2=O	–	70.2 µM	45.3 µM	60.1 µM	–	–	–	–	–	–
COc1cc2c(c(OC)c1)C(=O)O[C@@H](C)CCC[C@H](O)CCCCC2	–	–	–	–	inactive	Not Active	inactive	Not Active	Non-toxic	Not Active
COc1cc(O)c2c(c1)CCCCCC(=O)CCC[C@H](C)OC2=O	–	–	–	–	inactive	Not Active	inactive	Not Active	Non-toxic	Not Active
C[C@H]1CCC[C@@H](O)CCC/C=C/c2cc(O)cc(O)c2C(=O)O1	–	–	25.4 µM	–	inactive	Not Active	inactive	Not Active	–	–
COc1cc(O)c2c(c1Cl)/C=C/CCCC(=O)CCC[C@H](C)OC2=O	–	–	51.4 µM	108 µM	inactive	Not Active	–	–	–	–
COc1cc2c(c(OC)c1)C(=O)O[C@@H](C)CCCC(=O)CCCCC2	–	–	–	–	inactive	Not Active	inactive	Not Active	Non-toxic	Not Active
COc1cc(O)c2c(c1)CCCCC[C@@H](O)CCC[C@H](C)OC2=O	–	–	–	–	inactive	Not Active	inactive	Not Active	Non-toxic	Not Active
CCOc1cc(O)c2c(c1)/C=C/CCC[C@@H](O)CCC[C@H](C)OC2=O	–	61.8 µM	–	66.9 µM	–	–	–	–	Non-toxic	Not Active
CCC(=O)Oc1cc2c(c(OC(=O)CC)c1)C(=O)O[C@@H](C)CCCC(=O)CCC/C=C/2	–	–	–	–	inactive	Not Active	inactive	Not Active	Non-toxic	Not Active
CC(=O)Oc1cc(O)c2c(c1)/C=C/CCC[C@@H](O)CCC[C@H](C)OC2=O	–	89 µM	136 µM	51.6 µM	–	–	–	–	–	–
CCC(=O)Oc1cc(O)c2c(c1)/C=C/CCC[C@@H](O)CCC[C@H](C)OC2=O	–	–	129 µM	85.7 µM	inactive	Not Active	–	–	–	–
C[C@H]1CCCC(=O)CCCCCc2cc(O)cc(O)c2C(=O)O1 [ZEARALANONE]	–	–	151 µM	–	inactive	Not Active	inactive	Not Active	–	–
C[C@H]1CCCC(=O)CCC/C=C/c2c(Cl)c(O)cc(O)c2C(=O)O1	–	–	140 µM	89.9 µM	inactive	Not Active	–	–	–	–
